“Also recorded” adds a separate entry of the source. Where a SMILES comes first, the peptide text is derived from it. The star is where a group is joined. Cbz = O=C(OCc1ccccc1)*

This note sets out measurements from US20150148411A1, “COMPOSITIONS AND METHODS FOR DIAGNOSIS AND THERAPY OF DISORDERS RELATED TO ALTERATIONS OF MYH9” (THE ROCKEFELLER UNIVERSITY, priority 2013, published 2015).

The test system of one data set is p53 activation. Nature of the data set: p53/DNA damage response: p53 immunoblot of doxorubicin-treated primary keratinocytes. It counts as cell-based, mouse. Conditions: for DDR-induced p53 activation (p53 immunoblot): doxorubicin-treated mouse keratinocytes, blebbistatin 4 μM, Y27632 10 μM, latrunculin 2 μM. How it is done:
(§1) Western Blot analysis:-Protein blotting was carried out using standard protocols. Briefly, total cell lysates were prepared using RIPA (20 mM Tris-HCl (pH 8.0), 150 mM NaCl 1 mM EDTA, 1mM EGTA, 1% Triton X-100, 0.5% Deoxycorate, 0.1% SDS, 25 mM β-glycerophosphate, 10 mM NaF, 1 mM Na3VO4) supplemented with protease inhibitors (Complete mini, Roche). Blots were blocked with 5% BSA in 1×TBS 0.1% Tween-20 (TBST) for 1 h and incubated with the primary antibody overnight at 4° C. (diluted in TBST according to the manufacturer's protocol). Primary antibodies were reactive to rabbit anti-Myh9 (1:500, HPA001644, Sigma); phosphorylated (P) Erk1/2 (1:1000, #9101, Cell Signaling), Erk1/2 (1:1000, #9102, Cell Signaling), mouse anti-p53 (1:500, #2524, Cell Signaling), mouse anti-p21(F5) (1:500; sc-6246, Santa Cruz), mouse anti-GAPDH (ab8245, 1:5000; Abcam), mouse anti-Chk2 (1:500, #611570, BD); rabbit anti-P-Chk1 (1:500, #12302P, Cell Signaling); mouse anti-Chk1 (1:1000, 2360S, Cell Signaling); rabbit anti-pSmad2 (Ser465/467) (1:1000, Cell Signaling) and mouse anti-Smad2/3 (610843, 1/500; BD). Blots were washed three times in TBST for 30 min, incubated with HRP-conjugated secondary antibodies (1:2,000; Promega) for lh at room temperature, washed 3 times in TBST for 30 min and visualized using enhanced chemiluminescence (ECL).
(§2) p53/DNA damage responses:_For measurement of DNA damage response and p53 activation primary mouse keratinocytes cells were seeded at a cell density of 100,000 cells per well in a 6-well plate and allowed to grow for 24 h at 3% O2 till importantly 100% confluency. Cells were then treated with doxorubicin ([…]) as previously reported. For experiments using blebbistatin, cells were pretreated with blebbistatin (4 μM final concentration, Sigma B0560) 30 min prior to doxorubicin treatment. The Rock inhibitor Y27632 was used at 10 μM (Sigma Y0503), LatrunculinA was used at 2 μM (Sigma L5163), LeptomycinB was used at 20 nM (Sigma #9676) and the proteasome inhibitor MG132 was used at 3 μM (Sigma M7449).
On the technique in general: In western blotting, separated proteins are transferred to a membrane and probed.

For another data set, the system named is H2AX, Chk1 and Chk2. Nature of the data set: DDR activation markers by Western blot (γH2AX, phosphorylated Chk1, Chk2). It counts as cell-based, mouse. Conditions: keratinocytes treated with inhibitor. As for the experimental part:
as §1, §2

A further data set deals with nuclear p53 accumulation. Nature of the data set: Nuclear p53 retention in DDR-induced Myh9-knockdown primary keratinocytes (nuclear/cytoplasmic fractions). It counts as cell-based, mouse. Particulars: LeptomycinB 20 nM; for nuclear p53 accumulation/retention after DNA damage: DDR-induced Myh9-knockdown (myosin-IIa-deficient) keratinocytes, blebbistatin 4 μM. As for the experimental part:
as §1, §2

The subject of the next data set is myosin-IIa. Nature of the data set: Myosin-IIa protein by immunoblot/immunohistochemistry in transduced mice. It is filed as in vivo, mouse. As for the experimental part:
Immunohistochemistry and histological analyses of mouse and human Tumors: Immunohistochemistry was performed as previously described. Briefly, 5-μm sections were cut, stained with H&E or processed for immunohistochemistry/immunofluorescence microscopy. Whole-mount staining of mammary glands was performed as described. For immunoperoxidase staining, paraffin-embedded sections were dehydrated and antigenic epitopes exposed using a 10-mM citrate buffer (pH 6.0) in a pressure cooker. Sections were incubated with the following primary antibodies at 4° C. overnight: rabbit anti-K14 (1:500; E. Fuchs) and rabbit anti-Myh9 (HPA001644, 1:500 Sigma). Primary antibody staining was visualized using peroxidase-conjugated anti-rabbit IgG followed by the DAB substrate kit for peroxidase visualization of secondary antibodies (Vector Laboratories). The following human tissue microarray comprising 48 healthy human skin samples, 30 hyperplastic skin lesions and 206 human skin SCCs as well as from 156 HNSCCs were obtained from US Biomax, Rockeville, Md.: SK244a, SK241, SK242, SK801, SK802, SK2081, SK801b and HN803a, HN811a, HN483.
Western Blot analysis:-Protein blotting was carried out using standard protocols. […]

Another data set deals with keratinocytes. Nature of the data set: Scratch wound assay on keratinocytes infected in vitro. It counts as cell-based, mouse. Particulars: versus scrambled control.
For data set [1], the system named is hair follicle down-growth. Put plainly: Hair follicle and eyelid phenotype of newborn mice transduced at E9.5. It is filed as in vivo, mouse. How it is done:
Materials and Methods. Mice and lentiviral transductions: TβRII foxed mice were crossed to K14-Cre and/or Rosa26YFPlox/stop/lox mice and or K14-CreER mice. Myh9 floxed mice were purchased form EMMA (EM:02572). CD1 mice were from Charles River laboratories. Large-scale production and concentration of lentivirus (6−10^9 cfu/ml) as well as ultrasound-guided lentiviral injection were performed as previously described. As controls for knock-down mice, littermates were infected with a non-targeting scrambled-shRNA, which activates the endogenous microRNA processing pathway but is not known to target any gene. Myh9fl/fl K14CreER mice were injected i.p. with 2 mg tamoxifen (20 mg/ml stock solution in corn oil) for 5 consecutive days at 6-8 weeks of age. DMBA/TPA treatment was performed as previously described. Briefly, 7-8 week old CD1 mice in second telogen were shaved and treated with 400 nmol DMBA in 100 ul aceton one week later. Thereafter, mice were treated with […] TPA in 100 ul aceton wice weekly for 20 weeks. All animals were maintained in an AAALAC-approved animal facility and procedures were performed with protocols approved by IACUC and in accordance with the National Institutes of Health.
Immunohistochemistry and histological analyses of mouse and human Tumors: Immunohistochemistry was performed as previously described. […]

The subject of a further data set is nuclear p53. Put plainly: Nuclear p53 immunofluorescence in skin 6 hours after γ-irradiation (5Gy). It is filed as in vivo, mouse. Particulars: H2B-RFP labeled infected cells. An excerpt:
Immunofluorescence staining The following primary antibodies were used for immunofluorescence: chicken anti-GFP (1:2000; Abcam); guinea-pig anti-K5 (1:500; E. Fuchs); rat anti-K14 (1:500; E. Fuchs); rabbit anti-K6 (1:500; E. Fuchs); rabbit anti-K18 (1:500; E. Fuchs); rat anti-CD104 β4-integrin (346-11A, 1:300; BD); rabbit anti loricin (1:500; E. Fuchs); rabbit anti-Caspase 3 (AF835, 1:1000; R&D), rabbit anti-K10 (PRB-159P, 1:1000; Covance); rabbit anti-Myh9 (HPA001644, 1:500 Sigma); rabbit anti-SMA (ab5694 1:300; Abcam) and rabit anti-p53 (NCL-p53-CMSp, 1:300; Leica). Secondary antibodies were conjugated to Alexa-488, 546, or 647 (1:1000, Life Technologies). Cells and tissues were processed as previously reported, and mounted in Vectashield HardSet mounting medium with DAPI (Life Technologies). […] For quantifications of nuclear p53, images were captured using an inverted Zeiss LSM 780 laser scanning microscope, powered by Zen software. Quantitative image analysis was performed using ImageJ software. To quantify p53 nuclear staining, the following formula was used: CTCF (corrected total cell fluorescence)=whole nucleus signal−(mean background signal (measured in the suprabasal layer)×area of the nucleus measured).

The subject of a further data set is HNSCC tumor suppressors. Put plainly: Pooled in vivo shRNA screen with deep sequencing of tumors. On the set-up: species or system mouse. Conditions: deep sequencing of 87 lesions. An excerpt: Constructs and RNAi: shRNA constructs for the shRNA pool were obtained from The Broad Institute's Mission TRC-1 mouse library. We tested and used especially the following shRNAs targeting Brcal and Myh9:
Tumor free survival: Control and TβRII-cKO animals were transduced at E9.5 with low-titer shRNA pool targeting orthologs of putative HNSCC genes, including Brcal or Myh9. Scrambled shRNA was used as control. Transductions and knockdowns were confirmed by real-time PCR of mRNAs isolated from newborn skin epidermis or by fluorescence microscopy of a lentiviral reporter fluor, H2B-RFP or H2B-GFP. Animals were assessed biweekly for signs of tumorigenesis, and were considered positive if lesions grew to be larger than 2 mm in diameter.
Deep Sequencing: Sample preparation, preamplification and sequence processing Epidermal and tumor cells were subjected to genomic DNA isolation with the DNeasy Blood & Tissue Kit (Qiagen), and each sample was analyzed for target transduction using real-time PCR. […] Illumina reads were trimmed to the 21 nt hairpin sequence using the FASTX-Toolkit and aligned to the TRC 2.x library with BWA (v 0.6.2)44 using a maximum edit distance of 3. Hits were ranked based on (a) numbers of shRNAs that targeted the gene and scored positively in the screen, with 2 out of 5 shRNAs being considered meaningful; and (b) numbers of tumors enriched for a specific shRNA.

Regarding `COc1cccc2c1C(=O)c1c(O)c3c(c(O)c1C2=O)C[C@@](O)(C(=O)CO)C[C@@H]3O[C@H]1C[C@H](N)[C@H](O)[C@H](C)O1` [doxorubicin], the “p53 activation by DNA damage inducer” value with p53 activation (control primary keratinocytes) is “led to p53 activation”.

With `C[C@@H](N)[C@H]1CC[C@H](C(=O)Nc2ccncc2)CC1` [Y27632], the “DDR activation (γH2AX, phosphorylated Chk1 and Chk2)” value (from here on “DDR activation”) with H2AX, Chk1 and Chk2 is on record as “normal DDR activation”.

In the case of `CCC(=C/[C@H](C)C/C=C/C(C)=C/[C@@H](C)C(=O)[C@@H](C)[C@H](O)[C@@H](C)C/C(C)=C/C(=O)O)/C=C/[C@@H]1OC(=O)C=C[C@@H]1C` [leptomycinB], the “nuclear p53 accumulation/retention after DNA damage” value in the data set with nuclear p53 accumulation was “restored to normal levels”; in the data set on nuclear p53 accumulation (listed as Leptomycin B), “rescues the ability of Myh9-deficient cells to retain p53 in the nucleus; also recorded: restores p53 accumulation after DNA damage”. For the same molecule, the “transactivation of p53 target genes such as CDKN2 (p21)” value in the data set with nuclear p53 accumulation (DDR-induced myosin-IIa-deficient keratinocytes) was “restored to normal levels”.

“Myh9-shRNA #504: shRNA targeting Myh9, 5′-CGGTAAATTCATTCGTATCAA-3′ (SEQ ID NO: 3)”: the “myosin-IIa protein in skin/epidermis” value in the data set with myosin-IIa (mice transduced in utero, examined at birth) is given as “loss of myosin-IIa”. In addition, in the data set on myosin-IIa (tumors from TβRII-cKO mice), the “myosin-IIa immunolabeling in SCC tumor epithelium” value was “absent”. Moreover, the “keratinocyte migration (wound closure)” value with keratinocytes was “enhances keratinocyte migration”. Further, the hair follicle down-growth result in data set [1] was “impaired hair follicle down-growth”.

With latrunculin, in the data set with p53 activation, the “DDR-induced p53 activation (p53 immunoblot)” value was “did not display these effects”. Further, the “DDR activation” value in the data set on H2AX, Chk1 and Chk2 is “normal DDR activation”.

`CC(C)C[C@@H](C=O)NC(=O)[C@H](CC(C)C)NC(=O)[C@H](CC(C)C)NC(=O)OCc1ccccc1` [MG132] (Cbz-Leu-Leu-Leu-aldehyde): in the data set on p53 activation (Myh9-knockdown and control keratinocytes, DNA damage, MG132 3 μM), the “p53 protein levels in presence of proteasome inhibitor” value was “rescues Myh9 phenotype; also recorded: comparably induced in both Myh9-knockdown and control keratinocytes”.

Turning to “Myh9-shRNA #507: shRNA targeting Myh9, 5′-GCGATACTACTCAGGGCTTAT-3′ (SEQ ID NO: 6)”, the “nuclear p53 staining in skin” value with nuclear p53 was “do not show efficient nuclear p53 staining”.

As to “Brcal-shRNA#560: positive-control shRNA targeting Brca1, 5′-CCCATCATACTTTAATGTGTA-3′ (SEQ ID NO: 1)”, the “shRNA enrichment in lesions relative to initial pool and healthy skin” value in the data set with HNSCC tumor suppressors is recorded as “highly enriched”.

In the case of `Cc1ccc2c(c1)C(=O)C1(O)CCN(c3ccccc3)C1=N2` (centres unmarked) [blebbistatin], the “DDR-induced p53 activation (p53 immunoblot)” value in the data set with p53 activation was “phenocopied Myh9 loss of function effects on DDR-induced p53 activation”. For the same molecule, the “nuclear p53 accumulation/retention after DNA damage” value in the data set on nuclear p53 accumulation is “Nuclear p53 is not retained”. Besides, in the data set on H2AX, Chk1 and Chk2, the “DDR activation” value was “normal DDR activation”.
